Molecules are shown by their SMILES.

What all share (format): biochemical
Test [1] has as its target JAK2 (Homo sapiens, UniProt O60674). Briefly: JAK 2 enzymatic inhibitory activity IC50 assay (Caliper conversion rate). The settings on record: Km ATP, 28° C., 1 hour. How it is done: (§1) Biological effect: intracytoplasmic JAK 1,2,3 enzymatic inhibitory activity IC50 assay
(§2) JAK1 buffer solution: 25 mM HEPES, pH 7.5, 0.01% Brij-35, 0.01 M Triton. JAK2,3 buffer solution: 50 mM HEPES, pH 7.5, 0.0015% Brij-35.
(§3) 2. Compound was formulated in 100% DMSO in a concentration gradient, deposited to a 384-well plate with a final concentration of 2% of DMSO.
(§4) 3. JAK2,3 enzymes were diluted to having an optimum concentration with the following buffer: 50 mM HEPES, pH 7.5, 0.0015% Brij-35, 2 mM DTT. JAK1 enzyme was diluted to having an optimum concentration with the following buffer: 25 mM HEPES, pH 7.5, 0.01% Brij-35, 2 mM DTT, 0.01M Triton. Then they were transferred to a 384-well plate and incubated with the compound for a certain time.
(§5) 4. JAK2,3 substrate was diluted to having an optimum concentration with the following buffer: 50 mM HEPES, pH 7.5, 0.0015% Brij-35, 10 mM MgCl2, Km adenosine triphosphate. JAK1 substrate was diluted to having an optimum concentration with the following buffer: 25 mM HEPES, pH 7.5, 0.01% Brij-35, 10 mM MgCl2, 0.01 M Triton. Km adenosine triphosphate was added into 384-well plates to initiate reactions, and the reaction were carried out at 28° C. for 1 hour.
(§6) 5. Read the conversion rate by Caliper Reader, and the inhibition rate are calculated according to the average of two tests.

In test [2] the target is T1, JAK3 (Homo sapiens, UniProt P52333).
T1 sequence (P52333 1-1124): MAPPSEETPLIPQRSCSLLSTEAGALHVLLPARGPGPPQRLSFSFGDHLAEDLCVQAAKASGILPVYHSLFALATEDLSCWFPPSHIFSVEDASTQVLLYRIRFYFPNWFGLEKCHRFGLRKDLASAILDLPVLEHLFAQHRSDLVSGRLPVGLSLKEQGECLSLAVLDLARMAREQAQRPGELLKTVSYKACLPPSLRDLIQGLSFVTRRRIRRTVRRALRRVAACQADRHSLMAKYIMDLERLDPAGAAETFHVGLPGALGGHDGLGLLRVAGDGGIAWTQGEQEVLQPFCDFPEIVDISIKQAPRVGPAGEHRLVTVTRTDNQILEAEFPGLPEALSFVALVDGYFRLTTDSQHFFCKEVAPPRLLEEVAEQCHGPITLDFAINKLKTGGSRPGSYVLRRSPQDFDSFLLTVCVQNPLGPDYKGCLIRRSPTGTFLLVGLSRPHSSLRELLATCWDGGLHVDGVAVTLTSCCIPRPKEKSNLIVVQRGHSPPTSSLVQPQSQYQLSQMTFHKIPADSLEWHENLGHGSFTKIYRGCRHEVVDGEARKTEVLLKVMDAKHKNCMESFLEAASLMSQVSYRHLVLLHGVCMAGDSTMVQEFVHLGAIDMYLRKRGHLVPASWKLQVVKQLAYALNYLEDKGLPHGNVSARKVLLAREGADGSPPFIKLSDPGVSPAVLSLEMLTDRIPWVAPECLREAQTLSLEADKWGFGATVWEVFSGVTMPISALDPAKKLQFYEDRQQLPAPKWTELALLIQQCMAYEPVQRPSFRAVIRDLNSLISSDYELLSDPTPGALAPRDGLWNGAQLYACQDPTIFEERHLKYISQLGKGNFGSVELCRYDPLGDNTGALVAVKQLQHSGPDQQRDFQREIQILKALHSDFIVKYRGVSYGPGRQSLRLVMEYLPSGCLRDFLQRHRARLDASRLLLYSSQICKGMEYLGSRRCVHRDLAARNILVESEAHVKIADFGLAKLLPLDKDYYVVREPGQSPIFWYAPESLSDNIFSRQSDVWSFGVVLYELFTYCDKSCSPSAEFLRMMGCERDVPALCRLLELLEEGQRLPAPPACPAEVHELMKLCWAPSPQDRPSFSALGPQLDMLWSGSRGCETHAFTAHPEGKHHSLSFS
Kind of test: JAK 3 enzymatic inhibitory activity IC50 assay (Caliper conversion rate). The settings on record: Km ATP, 28° C., 1 hour; read-out: JAK 3 enzymatic inhibitory activity IC50. How it is done: as §1, §2, §3
3. JAK2,3 enzymes were diluted to having an optimum concentration with the following buffer: 50 mM HEPES, pH 7.5, 0.0015% Brij-35, 2 mM DTT. JAK1 enzyme was diluted to having an optimum concentration with the following buffer: 25 mM HEPES, pH 7.5, 0.01% Brij-35, 2 mM DTT, 0.01M Triton. Then they were transferred to a 384-well plate and incubated with the compound for a certain time. […]
as §6

Test [3] addresses JAK1 (Homo sapiens, UniProt P23458). Briefly: JAK 1 enzymatic inhibitory activity IC50 assay (Caliper conversion rate). Conditions: Km ATP, 28° C., 1 hour. How it is done:
as §1, §2, §3, §4, §5, §6

Sequence of JAK2 (O60674 whole entry, species assumed): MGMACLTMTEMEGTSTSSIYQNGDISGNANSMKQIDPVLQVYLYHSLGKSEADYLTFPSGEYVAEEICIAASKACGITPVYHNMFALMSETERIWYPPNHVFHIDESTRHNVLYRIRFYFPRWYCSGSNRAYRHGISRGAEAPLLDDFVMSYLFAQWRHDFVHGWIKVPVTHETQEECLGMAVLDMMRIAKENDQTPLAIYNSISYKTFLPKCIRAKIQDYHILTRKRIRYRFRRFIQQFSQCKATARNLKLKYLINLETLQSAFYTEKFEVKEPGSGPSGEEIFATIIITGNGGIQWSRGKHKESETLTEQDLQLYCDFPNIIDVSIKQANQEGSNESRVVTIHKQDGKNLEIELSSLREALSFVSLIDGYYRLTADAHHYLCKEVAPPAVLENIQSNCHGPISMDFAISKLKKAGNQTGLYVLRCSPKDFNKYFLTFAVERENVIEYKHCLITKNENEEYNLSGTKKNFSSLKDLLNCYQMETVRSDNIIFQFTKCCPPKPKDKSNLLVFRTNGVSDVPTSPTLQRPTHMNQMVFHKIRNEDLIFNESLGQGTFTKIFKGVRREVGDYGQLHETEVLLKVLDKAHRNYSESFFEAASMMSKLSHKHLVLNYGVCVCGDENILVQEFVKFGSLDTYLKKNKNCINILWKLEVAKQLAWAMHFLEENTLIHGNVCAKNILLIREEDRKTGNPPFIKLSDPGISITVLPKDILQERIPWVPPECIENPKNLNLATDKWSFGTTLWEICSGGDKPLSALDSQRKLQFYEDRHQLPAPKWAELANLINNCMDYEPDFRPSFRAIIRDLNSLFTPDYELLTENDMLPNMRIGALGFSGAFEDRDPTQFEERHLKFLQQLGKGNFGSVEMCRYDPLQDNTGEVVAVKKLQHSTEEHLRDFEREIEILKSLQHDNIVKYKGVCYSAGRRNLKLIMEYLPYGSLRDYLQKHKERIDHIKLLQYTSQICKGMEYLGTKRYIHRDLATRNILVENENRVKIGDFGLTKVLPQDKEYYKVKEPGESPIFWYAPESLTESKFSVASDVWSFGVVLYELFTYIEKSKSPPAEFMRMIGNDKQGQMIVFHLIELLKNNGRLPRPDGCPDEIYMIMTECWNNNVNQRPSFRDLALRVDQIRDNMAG
Sequence of JAK1 (P23458 whole entry, species assumed): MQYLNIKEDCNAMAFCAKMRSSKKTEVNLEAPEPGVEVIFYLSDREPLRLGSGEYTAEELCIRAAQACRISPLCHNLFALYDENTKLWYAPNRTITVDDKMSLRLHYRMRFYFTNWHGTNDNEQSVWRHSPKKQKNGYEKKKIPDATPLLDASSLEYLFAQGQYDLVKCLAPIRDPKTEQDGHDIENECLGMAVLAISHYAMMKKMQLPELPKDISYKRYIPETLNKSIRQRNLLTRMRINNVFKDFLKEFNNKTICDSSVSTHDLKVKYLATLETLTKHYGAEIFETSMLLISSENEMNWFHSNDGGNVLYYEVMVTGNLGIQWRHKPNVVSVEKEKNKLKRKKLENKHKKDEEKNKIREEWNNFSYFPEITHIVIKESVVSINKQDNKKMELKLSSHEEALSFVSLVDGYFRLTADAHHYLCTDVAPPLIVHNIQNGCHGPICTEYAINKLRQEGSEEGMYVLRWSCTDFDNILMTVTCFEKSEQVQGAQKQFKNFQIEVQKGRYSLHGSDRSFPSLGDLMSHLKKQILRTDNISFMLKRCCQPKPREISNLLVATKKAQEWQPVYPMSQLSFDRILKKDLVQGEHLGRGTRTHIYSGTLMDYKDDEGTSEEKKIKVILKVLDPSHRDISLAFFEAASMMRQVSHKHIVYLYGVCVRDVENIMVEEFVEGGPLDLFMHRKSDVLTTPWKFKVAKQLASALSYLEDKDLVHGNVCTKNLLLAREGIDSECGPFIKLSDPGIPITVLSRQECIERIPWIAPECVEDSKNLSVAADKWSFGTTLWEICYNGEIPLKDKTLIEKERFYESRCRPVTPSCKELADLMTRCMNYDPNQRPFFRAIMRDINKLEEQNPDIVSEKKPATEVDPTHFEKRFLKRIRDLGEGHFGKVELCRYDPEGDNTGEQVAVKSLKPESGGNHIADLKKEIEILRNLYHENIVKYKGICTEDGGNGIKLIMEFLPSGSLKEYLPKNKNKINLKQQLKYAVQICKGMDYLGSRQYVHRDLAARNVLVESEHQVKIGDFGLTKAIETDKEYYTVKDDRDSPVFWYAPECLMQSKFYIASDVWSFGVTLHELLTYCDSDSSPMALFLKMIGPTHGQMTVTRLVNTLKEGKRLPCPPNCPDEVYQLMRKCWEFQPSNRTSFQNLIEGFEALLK

For the compound `CC(CC#N)n1cc(-c2nc(NCc3ccccc3)nc3ccsc23)cn1` (stereo not shown) [Compound T-01, 3-(4-(2-(Benzylamino)thieno[3,2-d]pyrimidin-4-yl)-1H-pyrazol-1-yl)butanenitrile], the half-maximal inhibitory concentration (IC50) in test [1] and in test [2] was over 1000 nM throughout.
Regarding `CC(CC#N)n1cc(-c2nc(Nc3ccccc3)nc3ccsc23)cn1` (stereo not shown) [Compound T-02, 3-(4-(2-(Phenylamino)thieno[3,2-d]pyrimidin-4-yl)-1H-pyrazol-1-yl)butanenitrile], the IC50 is 50 to 500 nM in test [1] and over 1000 nM in test [2].
As for `N#CCC(C1CCCC1)n1cc(-c2nc(Nc3ccccc3)nc3ccsc23)cn1` (stereo not shown) [Compound T-03, 3-Cyclopentyl-3-(4-(2-(phenylamino)thieno[3,2-d]pyrimidin-4-yl)-1H-pyrazol-1-yl)propanenitrile], the values for the IC50 in test [1] and in test [2] were under 50 nM and over 1000 nM, respectively.
With `N#CCC(C1CCCC1)n1cc(-c2nc(Nc3cncnc3)nc3ccsc23)cn1` (stereo not shown) [Compound T-04, 3-Cyclopentyl-3-(4-(2-(pyrimidin-5-ylamino)thieno[3,2-d]pyrimidin-4-yl)-1H-pyrazol-1-yl)propanenitrile], the figures for the concentration for half-maximal inhibition (IC50) in test [1] and in test [2] were under 50 nM and over 1000 nM, respectively.
With `CCS(=O)(=O)N1CC(CC#N)(n2cc(-c3nc(Nc4ccccc4)nc4ccsc34)cn2)C1` [Compound T-05, 2-(1-(Ethylsulfonyl)-3-(4-(2-(phenylamino)thieno[3,2-d]pyrimidin-4-yl)-1H-pyrazol-1-yl)azetidin-3-yl)acetonitrile], the IC50 in test [3] is 50 to 500 nM; in test [1], under 50 nM; in test [2] it was 50 to 500 nM.
`CCS(=O)(=O)N1CC(CC#N)(n2cc(-c3nc(NC4CCOCC4)nc4ccsc34)cn2)C1` [Compound T-06, 2-(1-(Ethylsulfonyl)-3-(4-(2-((tetrahydro-2H-pyran-4-yl)amino)thieno[3,2-d]pyrimidin-4-yl)-1H-pyrazol-1-yl)azetidin-3-yl)acetonitrile]: the IC50 in test [1] and in test [2] was over 1000 nM throughout.
As for `CCS(=O)(=O)N1CC(CC#N)(n2cc(-c3nc(Nc4ccc(N5CCOCC5)cc4)nc4ccsc34)cn2)C1` [Compound T-07, 2-(1-(Ethylsulfonyl)-3-(4-(2-((4-morpholinophenyl)amino)thieno[3,2-d]pyrimidin-4-yl)-1H-pyrazol-1-yl)azetidin-3-yl)acetonitrile], the IC50 is under 50 nM in test [3], under 50 nM in test [1] and 50 to 500 nM in test [2].
`CCS(=O)(=O)N1CC(CC#N)(n2cc(-c3nc(Nc4ccc(OCCN5CCOCC5)cc4)nc4ccsc34)cn2)C1` [Compound T-08, 2-(1-(Ethylsulfonyl)-3-(4-(2-((4-(2-morpholinoethoxy)phenyl)amino)thieno[3,2-d]pyrimidin-4-yl)-1H-pyrazol-1-yl)azetidin-3-yl)acetonitrile]: the figures for the IC50 in test [1] and in test [2] were under 50 nM and 50 to 500 nM, respectively.
Consider `CCS(=O)(=O)N1CC(CC#N)(n2cc(-c3nc(Nc4ccc(OCCN5CCCC5)cc4)nc4ccsc34)cn2)C1` [Compound T-09, 2-(1-(Ethylsulfonyl)-3-(4-(2-((4-(2-(pyrrolidin-1-yl)ethoxy)phenyl)amino)thieno[3,2-d]pyrimidin-4-yl)-1H-pyrazol-1-yl)azetidin-3-yl)acetonitrile], for which the values for the IC50 in test [3], in test [1] and in test [2] were 50 to 500 nM, under 50 nM and 50 to 500 nM, respectively.
As to `CCS(=O)(=O)N1CC(CC#N)(n2cc(-c3nc(Nc4ccc(-n5cncn5)cc4)nc4ccsc34)cn2)C1` [Compound T-10, 2-(3-(4-(2-((4-(1H-1,2,4-Triazol-1-yl)phenyl)amino)thieno[3,2-d]pyrimidin-4-yl)-1H-pyrazol-1-yl)-1-(ethylsulfonyl)azetidin-3-yl)acetonitrile], the IC50 is under 50 nM in test [3], under 50 nM in test [1] and 50 to 500 nM in test [2].
As for `CCS(=O)(=O)N1CC(CC#N)(n2cc(-c3nc(Nc4ccc(-n5cccn5)cc4)nc4ccsc34)cn2)C1` [Compound T-11, 2-(3-(4-(2-((4-(1H-Pyrazol-1-yl)phenyl)amino)thieno[3,2-d]pyrimidin-4-yl)-1H-pyrazol-1-yl)-1-(ethylsulfonyl)azetidin-3-yl)acetonitrile], the IC50 in test [3] is 50 to 500 nM; in test [1], under 50 nM; in test [2] it was over 1000 nM.
`CCS(=O)(=O)N1CC(CC#N)(n2cc(-c3nc(Nc4ccc(S(C)(=O)=O)cc4)nc4ccsc34)cn2)C1` [Compound T-12, 2-(1-(Ethylsulfonyl)-3-(4-(2-((4-(methylsulfonyl)phenyl)amino)thieno[3,2-d]pyrimidin-4-yl)-1H-pyrazol-1-yl)azetidin-3-yl)acetonitrile]: the IC50 in test [3] is under 50 nM; in test [1], under 50 nM; in test [2] it was 50 to 500 nM.
For the compound `CCS(=O)(=O)N1CC(CC#N)(n2cc(-c3nc(Nc4cccc(N5CCOCC5)c4)nc4ccsc34)cn2)C1` [Compound T-13, 2-(1-(Ethylsulfonyl)-3-(4-(2-((3-morpholinophenyl)amino)thieno[3,2-d]pyrimidin-4-yl)-1H-pyrazol-1-yl)azetidin-3-yl)acetonitrile], the IC50 was 500 to 1000 nM in test [3], 50 to 500 nM in test [1] and 500 to 1000 nM in test [2].
Take `CCS(=O)(=O)N1CC(CC#N)(n2cc(-c3nc(Nc4cncnc4)nc4ccsc34)cn2)C1` [Compound T-14, 2-(1-(Ethylsulfonyl)-3-(4-(2-(pyrimidin-5-ylamino)thieno[3,2-d]pyrimidin-4-yl)-1H-pyrazol-1-yl)azetidin-3-yl)acetonitrile]: the IC50 in test [3] was 500 to 1000 nM; in test [1], under 50 nM; in test [2], over 1000 nM.
As for `CCS(=O)(=O)N1CC(CC#N)(n2cc(-c3nc(Nc4cnn(C)c4)nc4ccsc34)cn2)C1` [Compound T-15, 2-(1-(Ethylsulfonyl)-3-(4-(2-((1-methyl-1H-pyrazol-4-yl)amino)thieno[3,2-d]pyrimidin-4-yl)-1H-pyrazol-1-yl)azetidin-3-yl)acetonitrile], the figures for the IC50 in test [3], in test [1] and in test [2] were under 50 nM, under 50 nM and 50 to 500 nM, respectively.
`N#CCNC(=O)c1ccc(-c2nc(Nc3ccccc3)nc3ccsc23)cc1` [Compound T-16, N-(Cyanomethyl)-4-(2-(phenylamino)thieno[3,2-d]pyrimidin-4-yl)benzamide]: the IC50 in test [3], in test [1] and in test [2] was over 1000 nM each time.
Consider `CCS(=O)(=O)N1CC(CC#N)(n2cc(-c3nc(Nc4ccc(F)cc4)nc4ccsc34)cn2)C1` [Compound T-24, 2-(1-(Ethylsulfonyl)-3-(4-(2-((4-fluorophenyl)amino)thieno[3,2-d]pyrimidin-4-yl)-1H-pyrazol-1-yl)azetidin-3-yl)acetonitrile], for which the IC50 in test [1] is under 50 nM; in test [2] it was over 1000 nM.
For `CCS(=O)(=O)N1CC(CC#N)(n2cc(-c3nc(NC4CCCCC4)nc4ccsc34)cn2)C1` [Compound T-27, 2-(3-(4-(2-(Cyclohexylamino)thieno[3,2-d]pyrimidin-4-yl)-1H-pyrazol-1-yl)-1-(ethylsulfonyl)azetidin-3-yl)acetonitrile] the same measures were over 1000 nM and over 1000 nM.

One may read the IC50 as the midpoint of a concentration-inhibition curve.

The values are drawn from patent US9745320B2, “Five-and-six-membered heterocyclic compound, and preparation method, pharmaceutical composition and use thereof” (SHANGHAI CHEMEXPLORER CO., LTD., priority 2013, dated 2017).
